The record followed here is PMC9065575, “Synthesis, computational studies, antimycobacterial and antibacterial properties of pyrazinoic acid–isoniazid hybrid conjugates” (RSC Advances, 2019).

Converted amounts (≈) assume the structure as drawn. “And” between values parts separate entries of the source, which are not always exact repeats. Equal entries are not always repeated. Where two headings read alike, the source gives them in different places. Where only a bound is given, the exact number is not on record here.

Series [1] concerns Mycobacterium bovis. The series can be described thus: microbe, parasite or virus in culture. The format is cell-based. To be noted: for MIC: Mycobacterium tuberculosis variant bovis, read-out: Minimum inhibitory concentration (MIC) M. bovis; for potency relative to the standard references (M. bovis MIC): vs INH and PZA.
Series [2] deals with Mycobacterium marinum. Briefly: microbe, parasite or virus in culture. To be noted: clinical isolate, read-out: Minimum inhibitory concentration (MIC) M. marinum. The format is cell-based.
Series [3] relates to M. tuberculosis Erdman strain expressing luciferase. The series can be described thus: microbe, parasite or virus in culture. The format is cell-based, Mycobacterium tuberculosis. The note with it: for inhibition at 30 µg/mL: Mycobacterium tuberculosis, ERDMAN, 168 h, 30 μg mL^−1, pH 7.0, 7 days, vs untreated controls, read-out: Observed % growth inhibition at 30 µg/mL.
Series [4] deals with RPE1 (normal human immortalized retinal epithelial) cell line. Briefly: Antiproliferative properties by MTT technique. It counts as cell-based. The note with it: RPE1 cells, 100 μM. On the procedure:
Antiproliferative properties of the synthesized compounds were screened against RPE1 (normal human immortalized retinal epithelial) cell line to determine the toxicity/selectivity towards normal cell by the standard MTT technique.[23]
Antiproliferative properties of the synthesized compounds were tested against RPE1 (normal human immortalized retinal epithelial) cell line at 100 μM to determine the toxicity/selectivity towards normal cell by the standard MTT technique.[23]

Series [5] relates to Mycobacterium fortuitum. Briefly: microbe, parasite or virus in culture. The format is cell-based. The note with it: for MIC: Mycolicibacterium fortuitum.
Series [6] relates to Enterococcus faecalis. The series can be described thus: Aerobic antibacterial MIC, standard dilution technique. It counts as cell-based. To be noted: Enterococcus faecalis, clinical isolate; value in parentheses; read-out: Minimum inhibitory concentration (MIC) Enterococcus faecalis. An excerpt: (§1) Antibacterial properties were investigated for the synthesized compounds against a variety of Gram-positive (Staphylococcus aureus, Enterococcus faecalis) and Gram-negative (Klebsiella pneumonia, Proteus vulgaris, Pseudomonas aeruginosa) clinical isolate bacteria utilizing the standard technique.[21]

Series [7] relates to Proteus vulgaris. The description is as above. It counts as cell-based. The note with it: clinical isolate, value in parentheses, read-out: Minimum inhibitory concentration (MIC) Proteus vulgaris.
Excerpt: as §1

The subject of series [8] is Staphylococcus aureus. Described as above. The format is cell-based. To be noted: clinical isolate, value in parentheses, read-out: Minimum inhibitory concentration (MIC) Staphylococcus aureus.
Excerpt: as §1

Series [9] concerns Klebsiella pneumoniae. Described as above. The format is cell-based. The note with it: clinical isolate, value in parentheses, read-out: Minimum inhibitory concentration (MIC) Klebsiella pneumoniae.
Excerpt: as §1

Setting [10] is: clinical isolate, observed MIC, read-out: Minimum inhibitory concentration (MIC) M. fortuitum.
Where [11] appears, read: clinical isolate, read-out: Minimum inhibitory concentration (MIC) M. fortuitum.
[12] abbreviates: M. fortuitum, observed values listed with the BMLR-QSAR model, read-out: Observed MIC (Table S6).

Molecule `CC[C@@H](C)[C@H](NC(=O)c1cnccn1)C(=O)O` [10c, (Pyrazine-2-carbonyl)-L-alloisoleucine] returned a melting point of 164 to 166 °C. For the same molecule, in series [1], the MIC is > 20 µg/mL and > 84.3 µM. Also, in [2] (observed MIC), the MIC is over 84.3 µM. Moreover, in series [2], the MIC was over 20 µg/mL. In series [3], the inhibition at 30 µg/mL was determined as 84.3%. The “Percentage of cell proliferation ± SD” value in [4] came to 81.8 ± 5.5%. Besides, the MIC in [5] (setting [10]) was over 84.3 µM. Also, the MIC in series [5] (setting [11]) was over 20 µg/mL.
With `CC(C)C[C@H](NC(=O)c1cnccn1)C(=O)NNC(=O)c1ccncc1` [12a, (S)-N-(1-(2-Isonicotinoylhydrazineyl)-4-methyl-1-oxopentan-2-yl)pyrazine-2-carboxamide], the melting point is 160 to 162 °C. For the same molecule, in series [1], the MIC is > 20 µg/mL and > 56.1 µM. Also, in series [2] (observed MIC), the MIC came to 56.1 µM. The MIC in [2] was found to be 20 µg/mL. For the same molecule, the inhibition at 30 µg/mL in series [3] came to 68.9%. Besides, the “Percentage of cell proliferation ± SD” value in series [4] is given as 80.1 ± 4.2%. Further, the MIC in [5] (setting [12]) was determined as 56100 µM. The MIC in series [5] (setting [10]) was 56.1 µM. Further, in series [5] (setting [11]), the MIC is 20 µg/mL.
`CC(C)C[C@H](NC(=O)c1cnccn1)C(=O)O` [10a, (Pyrazine-2-carbonyl)-L-leucine] yielded a melting point of 155 to 156 °C. For the same molecule, the MIC in series [1] is > 20 µg/mL and > 84.3 µM. In addition, the MIC in series [2] (observed MIC) amounted to 84.3 µM. The MIC in [2] came to 20 µg/mL. For the same molecule, the inhibition at 30 µg/mL in series [3] was determined as 88.8%. Further, the “Percentage of cell proliferation ± SD” value in series [4] came out at 84.6 ± 0.7%. For the same molecule, in [5] (setting [12]), the MIC was found to be 84300 µM. The MIC in series [5] (setting [10]) was found to be 84.3 µM. For the same molecule, the MIC in [5] (setting [11]) worked out at 20 µg/mL.
With `O=C(N[C@@H](Cc1ccccc1)C(=O)O)c1cnccn1` [10e, (Pyrazine-2-carbonyl)-L-phenylalanine], the MIC in series [1] was > 20 µg/mL and > 73.7 µM; in [2] (observed MIC), over 73.7 µM; in series [2], over 20 µg/mL; in [5] (setting [10]), over 73.7 µM; in series [5] (setting [11]), over 20 µg/mL. The inhibition at 30 µg/mL in series [3] came to 60.4%. In addition, the “Percentage of cell proliferation ± SD” value in series [4] is given as 90.4 ± 3.3%.
The molecule `O=C(NNC(=O)[C@H](Cc1c[nH]c2ccccc12)NC(=O)c1cnccn1)c1ccncc1` [12g, (S)-N-(3-(1H-Indol-3-yl)-1-(2-isonicotinoylhydrazineyl)-1-oxopropan-2-yl)pyrazine-2-carboxamide] showed a melting point of 243 to 245 °C. In addition, the MIC in series [1] is > 20 µg/mL and > 46.6 µM. In addition, the MIC in series [2] (observed MIC) was 46.6 µM. In series [2], the MIC is 20 µg/mL. Further, the inhibition at 30 µg/mL in series [3] turned out to be 96%. The “Percentage of cell proliferation ± SD” value in series [4] came out at 92.2 ± 1.2%. Moreover, the MIC in series [5] (setting [12]) is 46600 µM. Further, the MIC in series [5] (setting [10]) is 46.6 µM. Besides, the MIC in [5] (setting [11]) was determined as 20 µg/mL.
Consider `CSCC[C@H](NC(=O)c1cnccn1)C(=O)NNC(=O)c1ccncc1` [12d, (S)-N-(1-(2-Isonicotinoylhydrazineyl)-4-(methylthio)-1-oxobutan-2-yl)pyrazine-2-carboxamide], for which the melting point lay in the range of 145 to 147 °C. In [1], the MIC is > 20 µg/mL and > 53.4 µM. The MIC in series [2] (observed MIC) is 26.7 µM. Further, in series [2], the MIC was 10 µg/mL. For the same molecule, the MIC in series [5] (setting [12]) came to 53400 µM. For the same molecule, the MIC in [5] (setting [10]) was found to be 53.4 µM. For the same molecule, in [5] (setting [11]), the MIC was found to be 20 µg/mL.
In the case of `O=C(NC(Cc1ccccc1)C(=O)O)c1cnccn1` (racemic) [10f, (Pyrazine-2-carbonyl)-DL-phenylalanine], the MIC in series [1] is > 20 µg/mL and > 73.7 µM; in series [2] (observed MIC), 73.7 µM; in [2] it was 20 µg/mL; in series [5] (setting [10]) it was over 73.7 µM; in series [5] (setting [11]), over 20 µg/mL. The “Percentage of cell proliferation ± SD” value in [4] was 86.5 ± 4.2%.
In the case of `O=C(N[C@@H](Cc1c[nH]c2ccccc12)C(=O)O)c1cnccn1` [10g, (Pyrazine-2-carbonyl)-L-tryptophan], the melting point was in the range of 127 to 129 °C. Besides, the MIC in series [1] is > 20 µg/mL and > 64.5 µM. Moreover, in [2] (observed MIC), the MIC was over 64.5 µM. The MIC in series [2] is over 20 µg/mL. In addition, in series [3], the inhibition at 30 µg/mL stood at 8.8%. Besides, the “Percentage of cell proliferation ± SD” value in series [4] is reported as 80.1 ± 7.4%. Moreover, the MIC in series [5] (setting [10]) was over 64.5 µM. Moreover, in series [5] (setting [11]), the MIC is over 20 µg/mL.
The molecule `CC[C@H](C)[C@H](NC(=O)c1cnccn1)C(=O)NNC(=O)c1ccncc1` [12c, N-((2S,3S)-1-(2-Isonicotinoylhydrazineyl)-3-methyl-1-oxopentan-2-yl)pyrazine-2-carboxamide] gave a melting point of 168 to 170 °C. Besides, the MIC in [1] was > 20 µg/mL and > 56.1 µM. Moreover, in [2] (observed MIC), the MIC was determined as 56.1 µM. In addition, the MIC in [2] was determined as 20 µg/mL. The inhibition at 30 µg/mL in series [3] is 84.1%. In addition, the “Percentage of cell proliferation ± SD” value in [4] turned out to be 84.6 ± 3.7%. Moreover, the MIC in [5] (setting [12]) amounted to 56100 µM. Moreover, the MIC in series [5] (setting [10]) was found to be 56.1 µM. The MIC in [5] (setting [11]) was 20 µg/mL.
Consider `O=C(NNC(=O)c1ccncc1)c1ccncc1` [compound 16, N′-Isonicotinoylisonicotinohydrazide], for which the MIC in [1] is 82.6 µM and 20 µg/mL; in series [2] (observed MIC), 82.6 µM; in series [2] it was 20 µg/mL; in [6], 66 µM (≈ 16 µg/mL); in series [7] it was 0.12 µM (≈ 0.0291 µg/mL); in series [8], 16.5 µM (≈ 4 µg/mL). Besides, the MIC in series [9] came out at 16.5 µM (≈ 4 µg/mL); in series [5] (setting [12]), 82600 µM; in [5] (setting [10]), 82.6 µM; in series [5] (setting [11]), 20 µg/mL. Moreover, in series [1], the “potency relative to the standard references (M. bovis MIC)” value is given as 1.8–2.0 folds. Further, the inhibition at 30 µg/mL in [3] amounted to 78.1%. Moreover, in series [4], the “Percentage of cell proliferation ± SD” value is 83.5 ± 7.4%.
`O=C(NNC(=O)c1cnccn1)c1ccncc1` [compound 13, N′-Isonicotinoylpyrazine-2-carbohydrazide]: the MIC in series [1] is 82.2 µM and 20 µg/mL; in [2] (observed MIC), 41.1 µM; in series [2], 10 µg/mL; in [6] it was 65.8 µM (≈ 16 µg/mL); in series [7] it was 263 µM (≈ 64 µg/mL); in [8] it was 32.9 µM (≈ 8 µg/mL). In addition, the MIC in series [9] came to 32.9 µM (≈ 8 µg/mL); in [5] (setting [12]) it was 41100 µM; in series [5] (setting [10]) it was 41.1 µM; in [5] (setting [11]), 10 µg/mL. Besides, the “potency relative to the standard references (M. bovis MIC)” value in [1] is on record as 1.8–2.0 folds. In series [3] (3 μg mL^−1, pH 7.0, compared with INH (>70% at 30 μg mL^−1)), the “growth inhibition at 3 μg mL^−1” value was “same growth inhibition”. Moreover, in [3], the inhibition at 30 µg/mL came out at 90.1%. For the same molecule, the “Percentage of cell proliferation ± SD” value in [4] amounted to 88.2 ± 5.1%.
`CSCC[C@H](NC(=O)c1cnccn1)C(=O)O` [10d, (Pyrazine-2-carbonyl)-L-methionine] gave a melting point of 136 to 138 °C. In series [1], the MIC is > 20 µg/mL and > 78.3 µM. The MIC in series [2] (observed MIC) was over 78.3 µM. The MIC in series [2] is over 20 µg/mL. Moreover, the inhibition at 30 µg/mL in series [3] was 80.2%. Moreover, the “Percentage of cell proliferation ± SD” value in series [4] worked out at 82.9 ± 8.5%. In addition, the MIC in series [5] (setting [10]) was over 78.3 µM. Besides, the MIC in series [5] (setting [11]) is over 20 µg/mL.
`O=C(NNC(=O)C(Cc1ccccc1)NC(=O)c1cnccn1)c1ccncc1` (centres unmarked) [12f, N-(1-(2-Isonicotinoylhydrazineyl)-1-oxo-3-phenylpropan-2-yl)pyrazine-2-carboxamide] yielded a melting point of 143 to 145 °C. Further, in series [1], the MIC was > 20 µg/mL and > 51.2 µM. Also, the MIC in [2] (observed MIC) stood at 25.6 µM. The MIC in series [2] is 10 µg/mL. In addition, the “Percentage of cell proliferation ± SD” value in series [4] came to 95.5 ± 8.6%. Besides, the MIC in series [5] (setting [10]) was found to be 25.6 µM. In addition, in series [5] (setting [11]), the MIC is 10 µg/mL. In addition, the “potency relative to INH (M. fortuitum MIC)” value in series [5] (vs INH MIC 145.8 μM) is “about 5.6 folds”. The “potency relative to PZA (M. fortuitum MIC)” value in series [5] (vs PZA MIC 81.2 μM) was about 3.2 folds.

What is called melting point is the temperature of the solid-liquid transition.
